System: cardiac gene expression
Assay: Microarray analysis of cardiac gene expression (GeneChip Mouse Genome 430 2.0)
Assay type: in vivo, mice
Description: Microarray Sample Preparation and Analysis. Animal hearts were rapidly removed, and the atria and right ventricles were cut and immediately plunged into TRIzol Reagent (Life Technologies). Total RNA was isolated following the manufacturer's instructions, purified by phenol-chloroform extraction and then ethanol precipitation, and 20 μg further processed for microarray analysis. Briefly, cDNA synthesis, in vitro transcription, and labeling and fragmentation to produce the oligonucleotide probes were performed as instructed by the GeneChip manufacturer (Affymetrix). The probes were first hybridized to a test array (Affymetrix) and then to the GeneChip Mouse Genome 430 2.0 Array, using the GeneChip Hybridization Oven 640. The chips were washed in a GeneChip Fluidics Station 450 (Affymetrix), and the results were visualized with a GeneChip G7 scanner (Affymetrix). RMA normalization, pairwise comparisons, Student's t test and Benjamini and Hochberg correction were subsequently performed using GeneSifter (VizX Labs, Seattle, Wash.) and Spotfire DecisionSite 8.3 (Spotfire, Inc., Somerville, Mass.).
Effects on Gene Expression Profile. […] One mouse heart was used for each array, and was performed in triplicate, generating a total of 12 arrays. GeneSifter was used to perform RMA normalization, pairwise comparisons of averaged signal intensity values, and Student's t-test with Benjamini and Hochberg correction, and Spotfire was used to perform pairwise comparisons. […] Additionally, genes that were altered between any two N or cardiac hypertrophy samples were removed, as these alterations most likely represented normal variations between mice.

[1] = heart, drug + isoproterenol vs isoproterenol only
[2] = mouse heart, vs isoproterenol only (CH), CH vs normal 1.6
[3] = mouse heart, vs isoproterenol only (CH), CH vs normal 1.7
[4] = mouse heart, vs isoproterenol only (CH), CH vs normal 1.8
[5] = mouse heart, vs isoproterenol only (CH), CH vs normal 1.9
[6] = mouse heart, vs isoproterenol only (CH), CH vs normal 2.0
[7] = mouse heart, vs isoproterenol only (CH), CH vs normal 2.1
[8] = mouse heart, vs isoproterenol only (CH), CH vs normal 2.2
[9] = mouse heart, vs isoproterenol only (CH), CH vs normal 2.3
[10] = mouse heart, vs isoproterenol only (CH), CH vs normal 2.4
[11] = mouse heart, vs isoproterenol only (CH), CH vs normal 2.5
[12] = mouse heart, vs isoproterenol only (CH), CH vs normal 2.6
[13] = mouse heart, vs isoproterenol only (CH), CH vs normal 2.7
[14] = mouse heart, vs isoproterenol only (CH), CH vs normal 2.9
[15] = mouse heart, vs isoproterenol only (CH), CH vs normal 3.0
[16] = mouse heart, vs isoproterenol only (CH), CH vs normal 3.1
[17] = mouse heart, vs isoproterenol only (CH), CH vs normal 3.2

C[C@H]1c2cccc(O)c2C(=O)C2=C(O)[C@]3(O)C(=O)C(C(N)=O)=C(O)[C@@H](N(C)C)[C@@H]3[C@@H](O)[C@@H]21 [doxycycline]
FC EGF, latrophilin seven transmembrane domain containing 1 (Eltd1) (GenBank NM_133222, vs mice given only isoproterenol): −1.7
FC ERBB receptor feedback inhibitor 1 (Errifi1) (GenBank NM_133753, vs mice given only isoproterenol): −2.7
FC F-box only protein 31 (Fboxo31) (GenBank NM_133765, vs mice given only isoproterenol): −2.4
FC Ras homolog gene family, member U (Arhu) (Rhou) (GenBank NM_133955, vs mice given only isoproterenol): −2.5
FC Peroxisomal biogenesis factor 12 (Pex12) (GenBank NM_134025, vs mice given only isoproterenol): −2.4
FC PHD finger protein 21A (Phf21a) (GenBank NM_138755, vs mice given only isoproterenol): 2.1
FC Glutamate-ammonia ligase (Glu1) (GenBank U09114, vs mice given only isoproterenol): −3.5
FC Gem GTPase (Gem) (GenBank U10551, vs mice given only isoproterenol): −2.8
FC P19-protein tyrosine phosphatase (Ptpn12) (GenBank X63440, vs mice given only isoproterenol): −1.5
Cyclin G2 (Ccng2), Microarray FC [1]: −3.1 FC
Cyclin-dependent kinase inhibitor 1A (p21) (Cdkn1a), Microarray FC [1]: −6.5 FC
Cytokine inducible SH2-containing protein 3 (Socs3), Microarray FC [1]: −4.9 FC
DNA-damage-inducible transcript 4 (Ddit4), Microarray FC [1]: −5.6 FC
GATA binding protein 4 (Gata4), Microarray FC [1]: 2.7 FC
Gem GTPase (Gem), Microarray FC [1]: −2.8 FC
Lipocalin 2 (Lcn2), Microarray FC [1]: −13.3 FC
Matrix metalloproteinase 3 (Mmp3), Microarray FC [1]: −2.9 FC
Metallothionein 1 (MT2), Microarray FC [1]: −5.5 FC
NADPH oxidase 4 (Nox4), Microarray FC [1]: −3.2 FC
Oncostatin receptor (Osmr), Microarray FC [1]: −2.6 FC
Phospholipase A2 group VII (platelet-activating factor acetylhydrolase, plasma) (Pla2g7), Microarray FC [1]: −2.2 FC
S100 calcium binding protein A8 (calgranulin A) (S100a8), Microarray FC [1]: −19.9 FC
S100 calcium binding protein A9 (calgranulin B) (S100a9), Microarray FC [1]: −14.0 FC
SET and MYND domain containing 1 (Smyd1), Microarray FC [1]: 2.7 FC
Serine protease inhibitor 2-2 (Spi2-2) (Serpin3n), Microarray FC [1]: −9.7 FC
Transformation related protein 53 inducible nuclear protein 1 (Trp53inp1), Microarray FC [1]: −3.5 FC
Tubulin, alpha 4 (Tuba4), Microarray FC [1]: 5.8 FC
FC Ankyrin repeat domain 47 (Ankrd47), C79906 [2]: −2.0 fold
FC Procollagen, type IV, alpha 1 (Col4a1), AW536690 [2]: −2.4 fold
FC cDNA, AV293532 [3]: −1.5 fold
FC cDNA, BG073457 [3]: −1.9 fold
FC cDNA, BI689897 [3]: −1.8 fold
FC AT rich interactive domain 5B (Mrf1 like) (Arid5b), BB079486 [4]: −2.0 fold
FC Actin binding LIM protein family, member 3 (Ablim3), BB667786 [4]: −2.4 fold
FC Chloride intracellular channel 5 (Circ5), AA210377 [4]: −1.7 fold
FC Fatty acid binding protein 4, adipocyte (Fabp4), BC002148 [4]: −2.1 fold
FC cDNA, AK005293 [4]: −1.8 fold
FC cDNA, BM215139 [4]: −1.7 fold
FC Chitinase 3-like 3; chitinase 3-like 4, AY065557 [5]: −2.4 fold
FC cDNA, BI683916 [5]: −2.6 fold
FC Casitas B-lineage lymphoma b (Cblb), AV276986 [6]: −1.7 fold
FC Choline kinase (Chk), NM_013490 [6]: −1.9 fold
FC Coiled-coil domain containing 85A (Ccdc85a), AW060797 [6]: −2.0 fold
FC Transglutaminase 2, C polypeptide (Tgm2), AW321975 [6]: −1.8 fold
FC cDNA, AV228737 [6]: −2.1 fold
FC cDNA, BB447627 [6]: −1.6 fold
FC Adenosine deaminase (Ada), NM_007398 [7]: −2.4 fold
FC CXC chemokine (angie2) (Cxcl13), AF030636 [7]: −2.2 fold
FC EST, AV032095 [7]: −1.8 fold
FC EST, BE630073 [7]: −2.0 fold
FC cDNA, AI788755 [7]: −2.3 fold
FC cDNA, BB431047 [7]: −2.2 fold
FC Angiogenin, ribonuclease A family, member 1 (Ang1), AI385586 (mouse heart, vs isoproterenol only (CH), CH vs normal 2.1, second AI385586 line): −1.6 fold
FC Amine oxidase, copper containing 3 (Aoc3), NM_009675 [8]: −2.4 fold
FC CD14 antigen (CD14), NM_009841 [8]: −2.0 fold
FC Cyclin G2 (Ccng2), U95826 [8]: −2.5 fold
FC Flavin containing monooxygenase 1 (Fmo1), BC011229 [8]: −2.0 fold
FC RAN binding protein 9 (Ranbp9), mRNA., NM_019930 [8]: −2.3 fold
FC cDNA, BB408123 [8]: −2.0 fold
FC cDNA, BB769119 [8]: −2.2 fold
FC cDNA, BG075321 [8]: −2.5 fold
FC cDNA, BG919470 [8]: −2.0 fold
FC A disintegrin-like and metallopeptidase (reprolysin type) with thrombospondin (ADAMTS)-like 2 (Adamtsl2), AK020831 [9]: −1.8 fold
FC CCAATenhaer binding protein (CEBP), beta (Cebpb), NM_009883 [9]: −1.9 fold
FC cDNA, BB248249 [9]: −2.1 fold
FC cDNA, BB258019 [9]: −2.3 fold
FC cDNA, BB272245 [9]: −1.6 fold
FC cDNA, BC003209 [9]: −2.1 fold
FC cDNA, BF466929 [9]: −2.8 fold
FC Apical protein, Xenopus laevis-like (Apx1), BQ176992 [10]: −1.7 fold
FC Purine-nucleoside phosphorylase (Pnp), BC003788 [10]: −2.0 fold
FC cDNA, BB398891 [10]: −2.2 fold
FC cDNA, BC027342 [10]: −2.8 fold
FC ATP-binding cassette, sub-family G (WHITE), member 2 (Abcg2), NM_011920 [11]: −1.7 fold
FC Angiogenin, ribonuclease A family, member 1 (Ang1), NM_007447 [11]: −2.1 fold
FC ESTs, AI447357 [11]: −2.5 fold
FC cDNA, BB787946 [11]: −2.3 fold
FC cDNA, BE956940 [11]: −2.2 fold
FC cDNA, BG065702 [11]: −2.5 fold
FC Casitas B-lineage lymphoma b (Cblb), BB205662 [12]: −2.1 fold
FC Cysteine proteinase cathepsin L (Ctsl), J02583 [12]: −2.1 fold
FC Dipeptidase 1 (Dpep1), NM_007876 [12]: −2.3 fold
FC Fc fragment of IgG, low affinity IIIa, receptor (Fcrl3), BC027310 [12]: −2.7 fold
FC cDNA, AV234245 [12]: −1.8 fold
FC cDNA, AW552579 [12]: −2.4 fold
FC Bcl2-like (Bcl211), BM228788 [13]: −1.9 fold
FC Ceruloplasmin (Cp), NM_007752 [13]: −1.7 fold
FC G7e protein, NM_033075 [13]: −2.2 fold
FC Mitogen activated protein kinase kinase kinase 8 (Map3k8), NM_007746 [13]: −3.0 fold
FC cDNA, BB200607 [13]: −2.7 fold
FC cDNA, BC019553 [13]: 1.7 fold
FC cDNA, BG071024 [13]: −2.8 fold
FC cDNA, BQ174442 [13]: −2.2 fold
FC cDNA, AV365503 (mouse heart, vs isoproterenol only (CH), CH vs normal 2.8, first AV365503 line): −3.0 fold
FC Carbonic anhydrase 4 (Car4), NM_007607 (mouse heart, vs isoproterenol only (CH), CH vs normal 2.8, second NM_007607 line): −4.3 fold
FC ChaC, cation transport regulator-like 1 (Chac1), BC025169 [14]: −2.6 fold
FC Decorin (Dcn), AV321547 [14]: −2.0 fold
FC Glycoprotein (transmembrane) nmb (Gpnmb), NM_053110 [14]: −2.0 fold
FC cDNA, BC004065 [14]: −3.1 fold
FC cDNA, BC020080 [14]: −3.4 fold
FC Amyotrophic lateral sclerosis 2 (juvenile) chromosome region, candidate 13 (Als2cr13), AV326938 [15]: −1.6 fold
FC Chromodomain protein, Y chromosome-like (Cdyl), NM_009881 [15]: −2.0 fold
FC C-type lectin domain family 1, member a (Clec1a), BB035924 [16]: −2.2 fold
FC Casitas B-lineage lymphoma b (Cblb), AW545867 [16]: −2.1 fold
FC Prostaglandin D synthetase (Ptdgs), AB006361 [16]: −2.3 fold
FC cDNA, AA939619 [16]: −3.1 fold
FC cDNA, AI790538 [16]: −2.0 fold
FC Carbonic anhydrase 4 (Car4), NM_007607 (mouse heart, vs isoproterenol only (CH), CH vs normal 3.1, first NM_007607 line): −5.2 fold
FC cDNA, AV365503 (mouse heart, vs isoproterenol only (CH), CH vs normal 3.1, second AV365503 line): −2.8 fold
FC CUB and zona pellucida-like domains 1 (Cuzd1), NM_008411 [17]: −1.7 fold
FC Chemokine (C—C motif) ligand 6 (Cc16) (MRP-1), BC002073 [17]: −1.9 fold
FC G7e protein, BC027314 [17]: −3.1 fold
FC Serine (or cysteine) peptidase inhibitor, clade A, member 3G (Serpina3g), BC002065 [17]: −3.6 fold
FC cDNA, AV084904 [17]: −1.7 fold
FC cDNA, AV369812 [17]: −2.5 fold
FC cDNA, BB829165 [17]: −3.1 fold
FC cDNA, BG297038 [17]: −3.3 fold
FC cDNA, NM_133898 [17]: −3.3 fold
FC Angiogenin, ribonuclease A family, member 1 (Ang1), AI385586 (mouse heart, vs isoproterenol only (CH), CH vs normal 3.2, first AI385586 line): −2.1 fold
FC Pyruvate dehydrogenase kinase 4 (Pdk4), NM_013743 (mouse heart, vs isoproterenol only (CH), CH vs normal 3.3): −3.1 fold

— patent publication US20080305186A1, “Method and Composition for the Treatment of Cardiac Hypertrophy” (BOARD OF REGENTS, THE UNIVERSITY OF TEXAS SYSTEM, priority 2007, published 2008)
